From patent publication US12077503B2, “Substituted cyclic amides and their use as herbicides” (FMC CORPORATION, priority 2015, dated 2024) come the findings set out here.

Read-outs that look alike come from different tables or passages of the source.

Holding throughout (type): in vivo
The subject of assay [1] is Galium (catchweed bedstraw, Galium aparine). Description: Test A postemergence. Particulars: Galium, post-emergence, 240 h, Postemergence; for pest or weed control at 125 g/ha: 125 g ai/ha; for pest or weed control at 500 g/ha: 500 g ai/ha, visual injury, 0 to 100 scale (0 no effect, 100 complete control), approx. 10 d. The gist of the method:
(§1)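 Each rating is a visual injury score from 0 to 100 given about 10 d after treatment, judged against untreated controls kept alongside in the greenhouse. In loam soil–sand blend, seeds got a preemergence directed soil spray, while postemergence plants were 2 to 10 cm tall at spraying.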

Assay [2] relates to Kochia (Kochia scoparia). Description: Test A postemergence. The following applies: Bassia scoparia, post-emergence, 240 h, Postemergence; for pest or weed control at 125 g/ha: 125 g ai/ha; for pest or weed control at 500 g/ha: 500 g ai/ha, visual injury, 0 to 100 scale (0 no effect, 100 complete control), approx. 10 d. The method in brief: as §1
Assay [3] has as its system barnyardgrass (Echinochloa crus-galli). Briefly: Test A postemergence. Particulars: Echinochloa crus-galli, post-emergence, 240 h, Postemergence; for pest or weed control at 125 g/ha: 125 g ai/ha; for pest or weed control at 500 g/ha: 500 g ai/ha, visual injury, 0 to 100 scale (0 no effect, 100 complete control), approx. 10 d. The gist of the method: as §1
For assay [4], the system named is blackgrass (Alopecurus myosuroides). Briefly: Test A postemergence. The following applies: Alopecurus myosuroides, post-emergence, 240 h, Postemergence; for pest or weed control at 125 g/ha: 125 g ai/ha; for pest or weed control at 500 g/ha: 500 g ai/ha, visual injury, 0 to 100 scale (0 no effect, 100 complete control), approx. 10 d. The gist of the method: as §1

Assay [5] has as its system corn (Zea mays). Briefly: Test A postemergence. The following applies: Zea mays, post-emergence, 240 h, Postemergence; for Corn plant response rating (crop injury, 0 = no effect, 100 = complete kill) at 500 g/ha: 500 g ai/ha, visual injury, 0 to 100 scale (0 no effect, 100 complete control), approx. 10 d. The gist of the method: as §1
Assay [6] deals with giant foxtail (Setaria faberii). Description: Test A postemergence. Particulars: Setaria faberi, post-emergence, 240 h, Postemergence; for pest or weed control at 125 g/ha: 125 g ai/ha; for pest or weed control at 500 g/ha: 500 g ai/ha, visual injury, 0 to 100 scale (0 no effect, 100 complete control), approx. 10 d. The method in brief:
as §1

The subject of assay [7] is pigweed (Amaranthus retroflexus). Description: Test A postemergence. Particulars: Amaranthus retroflexus, post-emergence, 240 h, Postemergence; for pest or weed control at 125 g/ha: 125 g ai/ha; for pest or weed control at 500 g/ha: 500 g ai/ha, visual injury, 0 to 100 scale (0 no effect, 100 complete control), approx. 10 d. The gist of the method:
as §1

The subject of assay [8] is ragweed (common ragweed, Ambrosia elatior). Description: Test A postemergence. The following applies: Ambrosia artemisiifolia, post-emergence, 240 h, Postemergence; for pest or weed control at 125 g/ha: 125 g ai/ha; for pest or weed control at 500 g/ha: 500 g ai/ha, visual injury, 0 to 100 scale (0 no effect, 100 complete control), approx. 10 d. The method in brief:
as §1

Assay [9] relates to ryegrass, Italian (Italian ryegrass, Lolium multiflorum). Briefly: Test A postemergence. Particulars: Lolium multiflorum, post-emergence, 240 h, Postemergence; for pest or weed control at 125 g/ha: 125 g ai/ha; for pest or weed control at 500 g/ha: 500 g ai/ha, visual injury, 0 to 100 scale (0 no effect, 100 complete control), approx. 10 d. The method in brief:
as §1

Assay [10] has as its system wheat (Triticum aestivum). Description: Test A postemergence. The following applies: Triticum aestivum, post-emergence, 240 h, Postemergence; for plant injury at 125 g/ha: 125 g ai/ha; for plant injury at 500 g/ha: 500 g ai/ha, visual injury, 0 to 100 scale (0 no effect, 100 complete control), approx. 10 d. The method in brief: as §1
The test system of assay [11] is barnyardgrass (Echinochloa crus-galli). Description: Test B flooded paddy test. The following applies: Echinochloa crus-galli, 360 h, Flood, 250 g ai/ha; visually evaluated after 13 to 15 d; read-out: Plant response rating, Barnyardgrass (0 to 100 scale where 0 is no effect and 100 is complete control). The gist of the method:
(§2)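 Rating scale 0–100 (visual, vs untreated controls) after a 13–15 d greenhouse period; application to the flood layer, 3 cm above soil and maintained; plants at 2-leaf stage when treated.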

The subject of assay [12] is ducksalad (Heteranthera limosa). Briefly: Test B flooded paddy test. Particulars: Heteranthera limosa, 360 h, Flood, 250 g ai/ha; visually evaluated after 13 to 15 d; read-out: Plant response rating, Ducksalad (0 to 100 scale where 0 is no effect and 100 is complete control). The gist of the method: as §2
In assay [13] the test system is rice (Oryra sativa). Description: Test B flooded paddy test. The following applies: Oryza sativa, 360 h, Flood, 250 g ai/ha; visually evaluated after 13 to 15 d; read-out: Plant response rating, Rice (0 to 100 scale where 0 is no effect and 100 is complete control). The gist of the method: as §2
In assay [14] the test system is sedge, umbrella (small-flower umbrella sedge, Cyperus difformis). Description: Test B flooded paddy test. The following applies: Cyperus difformis, 360 h, Flood, 250 g ai/ha; visually evaluated after 13 to 15 d; read-out: Plant response rating, Sedge, Umbrella (0 to 100 scale where 0 is no effect and 100 is complete control). The method in brief:
as §2

[15] abbreviates: read-out: Plant response rating, Galium.
Setting [16] is: read-out: Plant response rating, Kochia.
Setting [17] is: read-out: Plant response rating, Barnyardgrass.
Where [18] appears, read: read-out: Plant response rating, Blackgrass.
The mark [19] stands for this setting: read-out: Plant response rating, Foxtail, Giant.
Where [20] appears, read: read-out: Plant response rating, Pigweed.
The mark [21] stands for this setting: read-out: Plant response rating, Ragweed.
Setting [22] is: read-out: Plant response rating, Ryegrass, Italian.
[23] abbreviates: read-out: Plant response rating, Wheat.

`O=C1NC[C@H](c2cncc(C(F)(F)F)c2)[C@H]1C(=O)Nc1cccc(F)c1F` [Compound 1394]: the pest or weed control at 125 g/ha is 50% in assay [1] (visual injury after approx. 10 d, 0 to 100 scale, 0 no effect, 100 complete control, read-out: Plant response rating, Galium); 0% in assay [2] (visual injury after approx. 10 d, 0 to 100 scale, 0 no effect, 100 complete control, read-out: Plant response rating, Kochia); 90% in [3] (visual injury after approx. 10 d, 0 to 100 scale, 0 no effect, 100 complete control, read-out: Plant response rating, Barnyardgrass); 0% in assay [4] (visual injury after approx. 10 d, 0 to 100 scale, 0 no effect, 100 complete control, read-out: Plant response rating, Blackgrass); 80% in assay [6] (visual injury after approx. 10 d, 0 to 100 scale, 0 no effect, 100 complete control, read-out: Plant response rating, Foxtail, Giant); 0% in assay [7] (visual injury after approx. 10 d, 0 to 100 scale, 0 no effect, 100 complete control, read-out: Plant response rating, Pigweed). Also, the pest or weed control at 125 g/ha in assay [8] (visual injury after approx. 10 d, 0 to 100 scale, 0 no effect, 100 complete control, read-out: Plant response rating, Ragweed) came to 0%; in [9] (visual injury after approx. 10 d, 0 to 100 scale, 0 no effect, 100 complete control, read-out: Plant response rating, Ryegrass, Italian) it was 0%. Moreover, the pest or weed control at 500 g/ha worked out at 60% in assay [1] (setting [15]); 0% in assay [2] (setting [16]); 90% in [3] (setting [17]); 60% in assay [4] (setting [18]); 90% in [6] (setting [19]); 20% in [7] (setting [20]). In addition, the pest or weed control at 500 g/ha in assay [8] (setting [21]) and in assay [9] (setting [22]) was 20% each time. The Corn plant response rating (crop injury, 0 = no effect, 100 = complete kill) at 125 g/ha in assay [5] (125 g ai/ha, visual injury after approx. 10 d, 0 to 100 scale, 0 no effect, 100 complete control) came to 40%. Further, in assay [5], the Corn plant response rating (crop injury, 0 = no effect, 100 = complete kill) at 500 g/ha is 70%. Further, the plant injury at 125 g/ha in assay [10] (visual injury after approx. 10 d, 0 to 100 scale, 0 no effect, 100 complete control, read-out: Plant response rating, Wheat) stood at 0%. Moreover, the plant injury at 500 g/ha in assay [10] (setting [23]) stood at 60%. Also, the pest or weed control at 250 g/ha turned out to be 40% in assay [11], 75% in [12], 10% in assay [13] and 0% in [14].
With `O=C1NC[C@H](c2cc(C(F)(F)F)ccn2)[C@H]1C(=O)Nc1cccc(F)c1F` (racemic) [Compound 1376], the pest or weed control at 125 g/ha in [1] (visual rating about 10 d after treatment, read-out: Galium plant response rating (0 to 100 scale)) was 0%; in assay [2] (visual rating about 10 d after treatment, read-out: Kochia plant response rating (0 to 100 scale)), 0%; in assay [3] (visual rating about 10 d after treatment, read-out: Barnyardgrass plant response rating (0 to 100 scale, 0 no effect, 100 complete control)), 90%; in [4] (visual rating about 10 d after treatment, read-out: Blackgrass plant response rating (0 to 100 scale)) it was 20%; in assay [6] (visual rating about 10 d after treatment, read-out: Foxtail, Giant plant response rating (0 to 100 scale)), 80%; in assay [7] (visual rating about 10 d after treatment, read-out: Pigweed plant response rating (0 to 100 scale)), 0%. Besides, the pest or weed control at 125 g/ha in [8] (visual rating about 10 d after treatment, read-out: Ragweed plant response rating (0 to 100 scale)) is 0%; in [9] (visual rating about 10 d after treatment, read-out: Ryegrass, Italian plant response rating (0 to 100 scale)), 0%. In addition, the pest or weed control at 500 g/ha in assay [1] (setting [15]) was found to be 30%; in assay [2] (setting [16]), 20%; in [3] (setting [17]), 90%; in [4] (setting [18]), 70%; in assay [6] (setting [19]), 80%; in [7] (setting [20]) it was 20%. Also, the pest or weed control at 500 g/ha amounted to 0% in assay [8] (setting [21]) and 30% in [9] (setting [22]). Besides, the plant injury at 125 g/ha in [5] (125 g ai/ha, visual rating about 10 d after treatment, read-out: Corn plant response rating (0 to 100 scale)) came out at 0%; in assay [10] (visual rating about 10 d after treatment, read-out: Wheat plant response rating (0 to 100 scale)), 0%. Besides, the Corn plant response rating (crop injury, 0 = no effect, 100 = complete kill) at 500 g/ha in [5] amounted to 30%. For the same molecule, the plant injury at 500 g/ha in assay [10] (setting [23]) came out at 60%. In addition, the pest or weed control at 250 g/ha in assay [11] was 40%; in assay [12] it was 70%; in assay [13] it was 0%; in assay [14] it was 0%.
